Entries after “also recorded” stand apart in the source; their conditions may differ. Where two headings read alike, the source gives them in different places. Blank lines part the entries; values can stand above or below the molecule they belong to.
Columns and labels:
D1.1 cells = assay: Cell cytotoxicity assay (CellTiter-Glo); type: cell-based
Experimental: (§1) Cancer cell lines, MV-4-11 (leukemia), P116.c139 (acute T cell leukemia) and D1.1 (acute T cell leukemia), were purchased from ATCC and cultured according to supplier's recommendations. K562 cells (myelogenous leukemia) over-expressing eIF4E, were also used for the cytotoxicity assay. For cells treated for 48 hours, 5000 cells were seeded in 70 μl of growth medium in black, flat-bottom 96-well plate. For cells treated for six days, 1000 cells were seeded in 70 μl of growth medium in black, flat-bottom 96-well plate. […] 50 μl of the diluted compounds was added to the cells and incubated at 37° C. in 5% CO2. After 48 hours or six days treatment, cell viability was determined by CellTiter-Glo Luminescent Cell Viability Assay (Promega, Madison, Wis.). 120 μl of the reagent was added to the cells and luminescence was measured using Tecan Safire Reader. Data was analysed with Graphpad Prism software and the figures represented indicate the half maximal inhibitory concentration (IC50). Error bars denote standard deviation (SD).

[1] = tested on: K562 cells over-expressing eIF4E; assay: Cell cytotoxicity assay (CellTiter-Glo); type: cell-based; details: for change of IC50 with treatment duration, K562 cells over-expressing eIF4E: 48 hours extended to 6 days
Experimental: as §1

MV-4-11 cells = assay: Cell cytotoxicity assay (CellTiter-Glo); type: cell-based
Experimental: as §1

P116.c139 cells = assay: Cell cytotoxicity assay (CellTiter-Glo); type: cell-based
Experimental: as §1

MNK1 = MNK1 (Homo sapiens, UniProt Q9BUB5); assay: In vitro MNK kinase assay (Caliper LabChip mobility shift); type: biochemical; details: enzymatic, 1.2 mM ATP; read-out: IC50 Mnk1
MNK2 = MNK2 (Homo sapiens (Human), UniProt Q9HBH9); assay: as above; type: biochemical; details: enzymatic, 250 μM ATP; read-out: IC50 Mnk2
MNK2, sequence (Q9HBH9 84-388): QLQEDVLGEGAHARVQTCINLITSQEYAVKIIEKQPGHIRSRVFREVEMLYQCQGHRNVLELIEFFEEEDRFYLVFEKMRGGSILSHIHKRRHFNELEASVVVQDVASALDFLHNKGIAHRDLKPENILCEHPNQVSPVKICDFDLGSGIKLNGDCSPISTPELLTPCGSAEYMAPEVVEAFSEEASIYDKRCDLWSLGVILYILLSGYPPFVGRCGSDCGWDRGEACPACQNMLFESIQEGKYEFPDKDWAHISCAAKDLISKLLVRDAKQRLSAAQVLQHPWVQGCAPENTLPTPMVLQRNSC

[2] = tested on: eIF4E phosphorylation in K562 cells; assay: Western blot of eIF4E phosphorylation in BC-CML cell line; type: cell-based; details: various concentrations, 24 h
Experimental: (§2) K562 cell line was obtained from the ATCC, and grown in RPMI supplemented with 10% FCS, L-glutamine, and penicillin/streptomycin.
(§3) Exponentially growing cells were plated at 2×10^5 cells/ml, and whole cell lysate processed for western blot analysis using antibodies recognizing eIF4E, phospho-eIF4E (Cell signaling Technology),

[3] = tested on: CD34+ BC-CML primary cells; assay: Serial replating assay; type: cell-based, human; details: for serial replating efficiency of CD34+ BC cells: increasing dose, 48 hr treatment, compared to DMSO
Description: (§4) Cord Blood (CB) samples were purchased from the Singapore Cord Blood bank. CML samples were the Singapore General Hospital after signed informed consent under local IRB-approved procedures. MNCs were obtained using Ficoll separation, and CD34^+ cells selected by immunomagnetic beads (Miltenyi Biotech, Germany).
CD34-enriched CB and BC cells were thawed and allowed to recover overnight in serum-free StemPro media (Invitrogen, Carlsbad, Calif.), supplemented with human growth factors and 1× nutrient supplement (Invitrogen). Cells were then subjected to drug treatment for 48 hr, harvested, washed, and seeded in methycellulose (H4434, […] Technologies, Canada). Colonies were enumerated after 2 weeks, individually picked, and replated in fresh methylcellulose in a 96-well format, and counted at 2 weeks. Three rounds of serial replating (representing>8 weeks in culture) were performed.

[4] = tested on: eIF4E Ser209 phosphorylation in Hela cells; assay: MNK cell-based assay, AlphaScreen SureFire; details: 2 hours
Description: It has been reported that Ser209 of eIF4E is solely phosphorylated by the MNK enzymes. The ability of compounds to inhibit this process in Hela cells was investigated using the AlphaScreen SureFire® assay platform from Perkin Elmer (Waltham, Mass.). eIF4E phosphorylated on Ser209 is recognized by two antibodies, the first which is fused to a streptavidin coated donor bead binds to an epitope away from Ser209, the second which is fused to a protein A conjugated acceptor bead binds to phosphorylated Ser209. The phosphorylation of eIF4E on Ser209 brings the two antibodies into close proximity and when excited by a laser a singlet oxygen is released by the donor bead which excites the acceptor bead resulting in the emission of light. This enables the monitoring of eIF4E Ser209 phosphorylation and its inhibition in a cellular context.
Hela cells were seeded into microtitre plates (30,000 cells per well) in 100 μl of culture medium and incubated at 37° C. for 24 hours. The media was then removed by aspiration and the cells resuspended in 50 μl of serum free medium containing the test compound and incubated at 37° C. for 2 hours. The culture medium was again removed by aspiration and the cells resuspended in lysis buffer (provided in Perkin Elmer SureFire® Assay Kit). After agitation at 350 rpm for 20 minutes at 22° C., 4 μl was transferred to a 384 well OptiPlate™ (Perkin Elmer, Waltham, Mass.). To each well was added 5 μl of acceptor mix; the plate was sealed and agitated gently at 22° C. for 2 hours. Then, in subdued light, 2 μl of donor mix was added to each well, the plate was sealed, wrapped in aluminum foil and agitated gently at 22° C. for 2 hours. Emission was measured using the EnVision® plate reader (Perkin Elmer, Waltham, Mass.).
Inhibition constants (IC50) were determined by plotting AlphaScreen signal versus log compound concentration and fitting with a non-linear regression algorithm using GraphPad Prism (GraphPad Software Inc.).

[5] = tested on: BCR-ABL activity (phosphorylation of CrKl) in K562 cells; assay: Western blot of CrKl phosphorylation in K562 cells; type: cell-based
Experimental: as §2, §3

[6] = tested on: nuclear beta-catenin in BC-CML cells; assay: Immunofluorescence analysis of nuclear active beta-catenin; type: cell-based, human
Description: as §4
Cells (1×10^5) were cytospun onto glass slides, fixed with 4% paraformaldehye, and stained with mouse monoclonal antibodies against activated β-catenin (clone 8E7, Millipore, UK), or rabbit monoclonal antibodies against phospho-eIF4E S209 (EP2151Y, Abeam, UK). Slides were then stained with either PE-conjugated anti-mouse or FITC-conjugated anti-rabbit antibodies. Images were obtained with the use of a fluorescence microscope (Olympus IX71S1F3) at 40× magnification.

[7] = tested on: CD34+ BC-CML primary cells; details: background section; including cells carrying T315I mutation; cited from earlier work
[8] = tested on: eIF4E phosphorylation in BC GMPs; details: background section; cited from earlier work
[9] = tested on: patient-derived BC cells in NSG mice; details: in vivo treatment for three consecutive weeks; CGP57380 40 mg/kg/d, dasatinib 5 mg/kg/d; background section; cited from earlier work

IC50 (MNK1): < 1 µM
IC50 (MNK2): < 1 µM
Molecule: O=C(c1ccc(-c2cn3c(-c4ccc(O)cc4)cnc3cn2)cc1)N1CCOCC1 [Example 2, (4-(3-(4-hydroxyphenyl)imidazo[1,2-a]pyrazin-6-yl)phenyl)(morpholino)methanone]
eIF4E phosphorylation [2]: prevent eIF4E phosphorylation
ability of BC cells to serial replate ([3]; at 10.0 μM and 20.0): potently impaired the ability of BC cells to serial replate
serial replating efficiency of CD34+ BC cells [3]: retards serial replating efficiency

IC50 ([4]; Homo sapiens): < 1 µM
Molecule: CN1CCN(C(=O)c2ccc(-c3ccc4ncc(-c5ccc(C#N)cc5)n4n3)cc2)CC1 [Example 54]

IC50 (MNK1): < 0.1 µM
IC50 (MNK2): < 0.1 µM
Molecule: N#Cc1ccc(-c2cnc3ccc(-c4ccc(C(=O)N5CCOCC5)cc4)nn23)cc1 [Example 62, 4-(6-(4-(morpholine-4-carbonyl)phenyl)imidazo[1,2-b]pyridazin-3-yl)benzonitrile]
change of IC50 with treatment duration, K562 cells over-expressing eIF4E [1]: reduced by more than half
eIF4E phosphorylation [2]: decrease in eIF4E phosphorylation; also recorded: prevent eIF4E phosphorylation
BCR-ABL activity (phosphorylation of CrKl) [5]: decrease in BCR-ABL activity
nuclear beta-catenin accumulation [6]: decrease in nuclear beta-catenin accumulation

IC50 (MNK1): < 0.1 µM
IC50 (MNK2): < 0.1 µM
Molecule: CN1CCN(C2CCN(C(=O)c3ccc(-c4ccc5ncc(-c6ccc(C#N)cc6)n5c4)cc3)CC2)CC1 [Example 133, 4-(6-(4-(4(4-methylpiperazin-1-yl)piperidine-1-carbonyl)phenyl)imidazo[1,2-a]pyridin-3-yl)benzonitrile]
change of IC50 with treatment duration, D1.1 cells (D1.1 cells; 48 hours extended to 6 days): not influenced by the treatment duration
change of IC50 with treatment duration, K562 cells over-expressing eIF4E [1]: not influenced by the treatment duration
change of IC50 with treatment duration, P116.c139 cells (P116.c139 cells; 48 hours extended to 6 days): decrease the IC50 by more than half-fold

IC50 (MNK1): < 0.1 µM
IC50 (MNK2): < 0.1 µM
IC50 ([4]; Homo sapiens): < 1 µM
Molecule: CN1CCN(C(=O)c2ccc(-c3ccc4ncc(-c5ccc(C#N)cc5)n4c3)cc2O)CC1 [Example 143, 4-(6-(3-hydroxy-4-(4-methylpiperazine-1-carbonyl)phenyl)imidazo[1,2-a]pyridin-3-yl)benzonitrile]

IC50 (MNK1): < 0.1 µM
IC50 (MNK2): < 0.1 µM
IC50 ([4]; Homo sapiens): < 1 µM
Molecule: CN1CCN(C(=O)c2ccc(-c3ccc4ncc(-c5ccc(C#N)cc5)n4c3)c(O)c2)CC1 [Example 144, 4-(6-(2-hydroxy-4-(4-methylpiperazine-1-carbonyl)phenyl)imidazo[1,2-a]pyridin-3-yl)benzonitrile]

IC50 [4]: < 1 µM
Molecule: N-(1-(4-(3-(4-chlorophenyl)imidazo[1,2-a]pyrazin-6-yl)benzoyl)piperidin-4-yl)-2,2,2-acetamide [Example 49]

IC50 [4]: < 1 µM
Molecule: N-(5-(3-(4-cyanophenyl)imidazo[1,2-b]pyridazin-6-yl)-2-morpholine-4-carbonyl)phenyl)acetamide [Example 80]

Further lines, the molecule ahead of its results:

Molecule: CC(=O)C1=C(O)C=C2Oc3c(C(N)=O)c(O)cc(O)c3[C@]2(C)C1=O [Cercosporamide, reference compound]
IC50 (D1.1 cells; 48 hours, read-out: IC50 after 48 hours of treatment, D1.1): 20.2 µM
IC50 (D1.1 cells; 6 days, read-out: IC50 after 6 days of treatment, D1.1): 17.3 µM
IC50 ([1]; 48 hours, read-out: IC50 after 48 hours of treatment, K562): > 50 µM
IC50 ([1]; 6 days, read-out: IC50 after 6 days of treatment, K562): 4.3 µM
IC50 (MV-4-11 cells; 48 hours, read-out: IC50 after 48 hours of treatment, MV-4-11): > 50 µM
IC50 (MV-4-11 cells; 6 days, read-out: IC50 after 6 days of treatment, MV-4-11): 4 µM
IC50 (P116.c139 cells; 48 hours, read-out: IC50 after 48 hours of treatment, P116.c139): > 50 µM
IC50 (P116.c139 cells; 6 days, read-out: IC50 after 6 days of treatment, P116.c139): 4.9 µM

Molecule: CN1CCN(C(=O)c2ccc(-c3cn4c(-c5ccc(O)cc5)cnc4cn3)cc2)CC1 [Example 1, (4-(3-(4-hydroxyphenyl)imidazo[1,2-a]pyrazin-6-yl)phenyl)(4-methylpiperazin-1-yl)methanone]
IC50 (MNK1): < 0.1 µM
IC50 (MNK2): < 0.1 µM
eIF4E phosphorylation [2]: prevent eIF4E phosphorylation
serial replating efficiency of CD34+ BC cells [3]: retards the serial replating efficiency

Molecule: CN1CCN(C(=O)c2ccc(-c3cn4c(-c5ccc(C#N)cc5)cnc4cn3)cc2)CC1 [Example 6, 4-(6-(4-(4-methylpinerazine-1-carbonyl)phenyl)imidazo[1,2-a]pyrazin-3-yl)benzonitrile]
eIF4E phosphorylation [2]: prevent eIF4E phosphorylation

Molecule: N#Cc1ccc(-c2cnc3ccc(-c4ccc(C(=O)N5CCN(c6ccncc6)CC5)cc4)cn23)cc1 [Example 125, 4-(6-(4-(4-(pyridin-4-1)piperazine-1-carbonyl)phenyl)imidazo[1,2-a]pyridin-3-yl)benzonitrile]
IC50 [4]: < 1 µM

Molecule: CN1CCN(C(=O)c2ccc(-c3ccn4ncc(-c5ccc(C#N)cc5)c4n3)cc2)CC1 [Example 176, 4-(5-(4-(4-methylpiperazine-1-carbonyl)phenyl)pyrazolo[1,5-a]pyrimidin-3-yl)benzonitrile]
IC50 (MNK1): < 0.1 µM
IC50 (MNK2): < 0.1 µM
change of IC50 with treatment duration, K562 cells over-expressing eIF4E [1]: reduced by more than half
eIF4E phosphorylation [2]: decrease in eIF4E phosphorylation; also recorded: prevent eIF4E phosphorylation
BCR-ABL activity (phosphorylation of CrKl) [5]: decrease in BCR-ABL activity
nuclear beta-catenin accumulation [6]: decrease in nuclear beta-catenin accumulation

Molecule: Cc1nc(Nc2ncc(C(=O)Nc3c(C)cccc3Cl)s2)cc(N2CCN(CCO)CC2)n1 [dasatinib]
ability of CD34+ BC cells to serially replate for more than 8 weeks in methylcellulose [7]: only partially impaired
eIF4E phosphorylation in BC GMPs [8]: not
serial transplantation of BC cells in NSG mice at 16 weeks [9]: not

Molecule: Cc1ccc(NC(=O)c2ccc(CN3CCN(C)CC3)cc2)cc1Nc1nccc(-c2cccnc2)n1 [imatinib]
ability of CD34+ BC cells to serially replate for more than 8 weeks in methylcellulose [7]: only partially impaired
eIF4E phosphorylation in BC GMPs [8]: not
